Patent US6737383B1, “Herbicidal oxadiazolidines” (priority 1999, dated 2004)

What was measured:
common groundsel = experiment: Test D common groundsel; type: in vivo, Senecio vulgaris; conditions: Preemergence, 0 to 100 scale
Summary of the method: (§1)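 Visual injury ratings, 0 = no injury to 100 = complete control, taken 14 to 21 days after treatment. Test chemicals were in a surfactant-containing non-phytotoxic solvent; preemergence treatments went onto the sandy loam surface of seeded greenhouse pots within one day of sowing.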

wild poinsettia = experiment: Test C postemergence wild poinsettia; type: in vivo, Euphorbia heterophylla; conditions: 0 to 100 scale, 0 no effect, 100 complete control
Summary of the method: (§2)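 Greenhouse postemergence test: compound applied in solvent/surfactant formulation to established plants; visual scoring 0–100 against untreated controls after roughly two to three weeks (14–21 days).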

pitted morningglory = experiment: Test D pitted morningglory; type: in vivo, Ipomoea lacunosa; conditions: Preemergence, 0 to 100 scale
Summary of the method: as §1

corn = experiment: Test C postemergence corn; type: in vivo, Zea mays; conditions: 0 to 100 scale, 0 no effect, 100 complete control
Summary of the method: as §2

purple nutsedge = experiment: Test D purple nutsedge; type: in vivo, Cyperus rotundus; conditions: Preemergence, 0 to 100 scale
Summary of the method: as §1

guineagrass = experiment: Test D guineagrass; type: in vivo, Panicum maximum; conditions: Preemergence, 0 to 100 scale
Summary of the method: as §1

cocklebur = experiment: Test C postemergence cocklebur; type: in vivo, Xanthium strumarium; conditions: 0 to 100 scale, 0 no effect, 100 complete control
Summary of the method: as §2

ivyleaf morningglory = experiment: Test C postemergence ivyleaf morningglory; type: in vivo, Ipomoea hederacea; conditions: 0 to 100 scale, 0 no effect, 100 complete control
Summary of the method: as §2

Johnson grass = experiment: Test D Johnson grass; type: in vivo, Sorghum halepense; conditions: Preemergence, 0 to 100 scale
Summary of the method: as §1

sandbur = experiment: Test D sandbur; type: in vivo, Cenchrus echinatus; conditions: Preemergence, 0 to 100 scale
Summary of the method: as §1

Spanishneedles = experiment: Test D Spanishneedles; type: in vivo, Bidens bipinnata; conditions: Preemergence, 0 to 100 scale
Summary of the method: as §1

itchgrass = experiment: Test D itchgrass; type: in vivo, Rottboellia exaltata; conditions: Preemergence, 0 to 100 scale
Summary of the method: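 Scoring used a 0–100 visual injury scale, with 0 meaning no effect and 100 complete control, assessed 14–21 days after application alongside untreated pots. Preemergence treatments went onto sandy loam surfaces of separately potted seeds within a day of sowing.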

dallisgrass = experiment: Test D dallisgrass; type: in vivo, Paspalum dilatatum; conditions: Preemergence, 0 to 100 scale
Summary of the method: as §1

bermuda-grass = experiment: Test D bermudagrass; type: in vivo, Cynodon dactylon; conditions: Preemergence, 0 to 100 scale
Summary of the method: as §1

arrowleaf sida = experiment: Test C postemergence arrowleaf sida; type: in vivo, Sida rhombifolia; conditions: 0 to 100 scale, 0 no effect, 100 complete control
Summary of the method: as §2

redroot pigweed = experiment: Test C postemergence redroot pigweed; type: in vivo, Amaranthus retroflexus; conditions: 0 to 100 scale, 0 no effect, 100 complete control
Summary of the method: as §2

goosegrass = experiment: Test D goosegrass; type: in vivo, Eleusine indica; conditions: Preemergence, 0 to 100 scale
Summary of the method: as §1

large crabgrass = experiment: Test D large crabgrass; type: in vivo, Digitaria sanguinalis; conditions: Preemergence, 0 to 100 scale
Summary of the method: as §1

[1] = Rate 16 g/ha, 0 no injury, 100 complete control
[2] = Rate 32 g/ha, 0 no injury, 100 complete control
[3] = Rate 64 g/ha, 0 no injury, 100 complete control
[4] = Rate 125 g/ha, 0 no injury, 100 complete control

## CC(C)N(C(=O)n1oc(=O)n(C(C)C)c1=O)c1ccc(F)cc1F [Compound 109]
Common groundsel; [1]
  Plant response rating, Com. groundsel: 0
Common groundsel; [2]
  Plant response rating, Com. groundsel: 0
Common groundsel; [3]
  Plant response rating, Com. groundsel: 0
Common groundsel; [4]
  Plant response rating, Com. groundsel: 0
Common groundsel; Rate 250 g/ha
  Plant response rating, Com. groundsel: 0
Common groundsel; Rate 500 g/ha
  Plant response rating, Com. groundsel: 0
Wild poinsettia; Rate 140 g/ha
  Plant response rating Wild poinsettia: 10
Wild poinsettia; Rate 280 g/ha
  Plant response rating Wild poinsettia: 30
Wild poinsettia; Rate 560 g/ha
  Plant response rating Wild poinsettia: 50
Wild poinsettia; Rate 1120 g/ha
  Plant response rating Wild poinsettia: 90
Pitted morningglory; [1]
  Plant response rating, P. morninglory: 0
Pitted morningglory; [2]
  Plant response rating, P. morninglory: 0
Pitted morningglory; [3]
  Plant response rating, P. morninglory: 0
Pitted morningglory; [4]
  Plant response rating, P. morninglory: 65
Pitted morningglory; Rate 250 g/ha
  Plant response rating, P. morninglory: 85
Pitted morningglory; Rate 500 g/ha
  Plant response rating, P. morninglory: 100
corn; Rate 140 g/ha
  Plant response rating, Corn: 0
corn; Rate 280 g/ha
  Plant response rating, Corn: 0
corn; Rate 560 g/ha
  Plant response rating, Corn: 5
corn; Rate 1120 g/ha
  Plant response rating, Corn: 55
Purple nutsedge; [1]
  Plant response rating, Purple nutsedge: 0
Purple nutsedge; [2]
  Plant response rating, Purple nutsedge: 0
Purple nutsedge; [3]
  Purple nutsedge plant response rating: 40
Purple nutsedge; [4]
  Purple nutsedge plant response rating: 40
Purple nutsedge; Rate 250 g/ha
  Plant response rating, Purple nutsedge: 75
Purple nutsedge; Rate 500 g/ha
  Plant response rating, Purple nutsedge: 85
guineagrass; [1]
  Plant response rating, Guineagrass: 90
guineagrass; [2]
  Plant response rating, Guineagrass: 100
guineagrass; [3]
  Plant response rating, Guineagrass: 100
guineagrass; [4]
  Plant response rating, Guineagrass: 100
guineagrass; Rate 250 g/ha
  Plant response rating, Guineagrass: 100
guineagrass; Rate 500 g/ha
  Plant response rating, Guineagrass: 100
cocklebur; Rate 140 g/ha
  Plant response rating, Cocklebur: 30
cocklebur; Rate 280 g/ha
  Plant response rating, Cocklebur: 30
cocklebur; Rate 560 g/ha
  Plant response rating, Cocklebur: 60
Ivyleaf morningglory; Rate 140 g/ha
  Plant response rating I. morningglory: 0
Ivyleaf morningglory; Rate 280 g/ha
  Plant response rating I. morningglory: 50
Ivyleaf morningglory; Rate 560 g/ha
  Plant response rating I. morningglory: 50
Ivyleaf morningglory; Rate 1120 g/ha
  Plant response rating I. morningglory: 70
Johnson grass; [1]
  Plant response rating Johnsongrass: 0
Johnson grass; [2]
  Plant response rating Johnsongrass: 0
Johnson grass; [3]
  Plant response rating Johnsongrass: 75
Johnson grass; [4]
  Plant response rating Johnsongrass: 98
Johnson grass; Rate 250 g/ha
  Plant response rating Johnsongrass: 100
Johnson grass; Rate 500 g/ha
  Plant response rating Johnsongrass: 100
sandbur; [1]
  Plant response rating, Sandbur: 0
sandbur; [2]
  Plant response rating, Sandbur: 0
sandbur; [3]
  Sandbur plant response rating: 98
sandbur; [4]
  Sandbur plant response rating: 100
sandbur; Rate 250 g/ha
  Plant response rating, Sandbur: 100
sandbur; Rate 500 g/ha
  Plant response rating, Sandbur: 100
Spanishneedles; [1]
  Plant response rating, Spanishneedles: 0
Spanishneedles; [2]
  Plant response rating, Spanishneedles: 10
Spanishneedles; [3]
  Spanishneedles plant response rating: 10
Spanishneedles; [4]
  Spanishneedles plant response rating: 10
Spanishneedles; Rate 500 g/ha
  Plant response rating, Spanishneedles: 30
itchgrass; [1]
  Plant response rating, Itchgrass: 0
itchgrass; [2]
  Plant response rating, Itchgrass: 65
itchgrass; [3]
  Plant response rating, Itchgrass: 75
itchgrass; [4]
  Plant response rating, Itchgrass: 75
itchgrass; Rate 250 g/ha
  Plant response rating, Itchgrass: 100
itchgrass; Rate 500 g/ha
  Plant response rating, Itchgrass: 100
dallisgrass; [1]
  Plant response rating, Dallisgrass: 40
dallisgrass; [2]
  Plant response rating, Dallisgrass: 98
dallisgrass; [3]
  Plant response rating, Dallisgrass: 100
dallisgrass; [4]
  Plant response rating, Dallisgrass: 100
dallisgrass; Rate 250 g/ha
  Plant response rating, Dallisgrass: 100
dallisgrass; Rate 500 g/ha
  Plant response rating, Dallisgrass: 100
bermuda-grass; [1]
  Plant response rating, Bermudagrass: 98
bermuda-grass; [2]
  Plant response rating, Bermudagrass: 100
bermuda-grass; [3]
  Plant response rating, Bermudagrass: 100
bermuda-grass; [4]
  Plant response rating, Bermudagrass: 100
bermuda-grass; Rate 250 g/ha
  Plant response rating, Bermudagrass: 100
bermuda-grass; Rate 500 g/ha
  Plant response rating, Bermudagrass: 100
Arrowleaf sida; Rate 140 g/ha
  Plant response rating Arrowleaf sida: 60
Arrowleaf sida; Rate 280 g/ha
  Plant response rating Arrowleaf sida: 70
Arrowleaf sida; Rate 560 g/ha
  Plant response rating Arrowleaf sida: 85
Arrowleaf sida; Rate 1120 g/ha
  Plant response rating Arrowleaf sida: 95
Redroot pigweed; Rate 140 g/ha
  Plant response rating, Redroot pigweed: 0
Redroot pigweed; Rate 280 g/ha
  Plant response rating, Redroot pigweed: 40
Redroot pigweed; Rate 560 g/ha
  Plant response rating, Redroot pigweed: 70
Redroot pigweed; Rate 1120 g/ha
  Plant response rating, Redroot pigweed: 85
goosegrass; [1]
  Plant response rating, Goosegrass: 85
goosegrass; [2]
  Plant response rating, Goosegrass: 98
goosegrass; [3]
  Plant response rating, Goosegrass: 100
goosegrass; [4]
  Plant response rating, Goosegrass: 100
goosegrass; Rate 250 g/ha
  Plant response rating, Goosegrass: 100
goosegrass; Rate 500 g/ha
  Plant response rating, Goosegrass: 100
Large crabgrass; [1]
  Plant response rating Large crabgrass: 85
Large crabgrass; [2]
  Plant response rating Large crabgrass: 100
Large crabgrass; [3]
  Plant response rating Large crabgrass: 100
Large crabgrass; [4]
  Plant response rating Large crabgrass: 100
Large crabgrass; Rate 250 g/ha
  Plant response rating Large crabgrass: 100
Large crabgrass; Rate 500 g/ha
  Plant response rating Large crabgrass: 100

## Cc1ccc(N(C(=O)n2oc(=O)n(C(C)C)c2=O)C(C)C)cc1 [Compound 132]
Common groundsel; [3]
  Plant response rating, Com. groundsel: 0
Wild poinsettia; Rate 140 g/ha
  Plant response rating Wild poinsettia: 0
Wild poinsettia; Rate 280 g/ha
  Plant response rating Wild poinsettia: 0
Wild poinsettia; Rate 560 g/ha
  Plant response rating Wild poinsettia: 0
Wild poinsettia; Rate 1120 g/ha
  Plant response rating Wild poinsettia: 0
Pitted morningglory; [3]
  Plant response rating, P. morninglory: 0
corn; Rate 140 g/ha
  Plant response rating, Corn: 0
corn; Rate 280 g/ha
  Plant response rating, Corn: 0
corn; Rate 560 g/ha
  Plant response rating, Corn: 0
corn; Rate 1120 g/ha
  Plant response rating, Corn: 10
Purple nutsedge; [3]
  Purple nutsedge plant response rating: 0
guineagrass; [3]
  Plant response rating, Guineagrass: 85
cocklebur; Rate 140 g/ha
  Plant response rating, Cocklebur: 0
cocklebur; Rate 280 g/ha
  Plant response rating, Cocklebur: 0
cocklebur; Rate 560 g/ha
  Plant response rating, Cocklebur: 0
cocklebur; Rate 1120 g/ha
  Plant response rating, Cocklebur: 0
Ivyleaf morningglory; Rate 140 g/ha
  Plant response rating I. morningglory: 0
Ivyleaf morningglory; Rate 280 g/ha
  Plant response rating I. morningglory: 0
Ivyleaf morningglory; Rate 560 g/ha
  Plant response rating I. morningglory: 0
Ivyleaf morningglory; Rate 1120 g/ha
  Plant response rating I. morningglory: 0
Johnson grass; [3]
  Plant response rating Johnsongrass: 35
sandbur; [3]
  Sandbur plant response rating: 0
Spanishneedles; [3]
  Spanishneedles plant response rating: 0
itchgrass; [3]
  Plant response rating, Itchgrass: 10
dallisgrass; [3]
  Plant response rating, Dallisgrass: 98
bermuda-grass; [3]
  Plant response rating, Bermudagrass: 100
Arrowleaf sida; Rate 140 g/ha
  Plant response rating Arrowleaf sida: 0
Arrowleaf sida; Rate 280 g/ha
  Plant response rating Arrowleaf sida: 0
Arrowleaf sida; Rate 560 g/ha
  Plant response rating Arrowleaf sida: 10
Arrowleaf sida; Rate 1120 g/ha
  Plant response rating Arrowleaf sida: 80
Redroot pigweed; Rate 140 g/ha
  Plant response rating, Redroot pigweed: 0
Redroot pigweed; Rate 280 g/ha
  Plant response rating, Redroot pigweed: 10
Redroot pigweed; Rate 1120 g/ha
  Plant response rating, Redroot pigweed: 30
goosegrass; [3]
  Plant response rating, Goosegrass: 98
Large crabgrass; [3]
  Plant response rating Large crabgrass: 100
